Assay results: ChEMBL document CHEMBL1201862, “PubChem BioAssay data set” (2004)
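Protocol summary: plate cells (96-well), add compound at 5 concentrations, incubate 48 h, interpolate endpoints linearly. GI50 is the concentration that inhibits growth by half.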 Activity calls are given as the source filed them. Rule as the data show it: active = GI50 up to about 1.1 µM and inactive = higher.

Legend:
Experiment in all cases: NCI-60 cell line screen, 48 h
SK-OV-3 = tested on: SK-OV-3
TK-10 = tested on: TK-10
HCT-116 = tested on: HCT-116
OVCAR-4 = tested on: OVCAR-4
SF-539 = tested on: SF-539
MDA-N = tested on: MDA-N
HCT-15 = tested on: HCT-15
A549 = tested on: A549
Malme-3M = tested on: Malme-3M
SK-MEL-28 = tested on: SK-MEL-28
T47D = tested on: T47D
HCC 2998 = tested on: HCC 2998
HT-29 = tested on: HT-29
CAKI-1 = tested on: CAKI-1
SW-620 = tested on: SW-620
COLO 205 = tested on: COLO 205
NCI-H226 = tested on: NCI-H226
UACC-62 = tested on: UACC-62

SMILES | GI50 (SK-OV-3) | GI50 (TK-10) | GI50 (HCT-116) | GI50 (OVCAR-4) | GI50 (SF-539) | GI50 (MDA-N) | GI50 (HCT-15) [µM] | GI50 (A549) | GI50 (Malme-3M) | GI50 (SK-MEL-28) | GI50 (T47D) | GI50 (HCC 2998) | GI50 (HT-29) | GI50 (CAKI-1) | GI50 (SW-620) | GI50 (COLO 205) | GI50 (NCI-H226) | GI50 (UACC-62)
O=C1c2ccccc2CC12Cc1cc3c(cc1C2=O)CCC3 (stereo not given) | > 100 µM (inactive) | > 100 µM (inactive) | > 100 µM (inactive) | > 100 µM (inactive) | > 100 µM (inactive) | > 100 µM (inactive) | > 100 | > 100 µM (inactive) | > 100 µM (inactive) | > 100 µM (inactive) | > 100 µM (inactive) | > 100 µM (inactive) | > 100 µM (inactive) | > 100 µM (inactive) | > 100 µM (inactive) |  |  | 
NC(C(=O)O)C(O)c1c[nH]cn1 (stereo not given) | > 100 µM (inactive) | > 100 µM (inactive) | > 100 µM (inactive) | > 100 µM (inactive) | > 100 µM (inactive) | > 100 µM (inactive) | > 100 | > 100 µM (inactive) | > 100 µM (inactive) | > 100 µM (inactive) | > 100 µM (inactive) |  | > 100 µM (inactive) | > 100 µM (inactive) | > 100 µM (inactive) | > 100 µM (inactive) | > 100 µM (inactive) | > 100 µM (inactive)
Oc1cc(O)c2c(c1)OC(c1ccc(O)c(O)c1)C(O)C2c1c(O)cc(O)c2c1OC(c1ccc(O)c(O)c1)C(O)C2 (stereo not given) | > 100 µM (inactive) | > 100 µM (inactive) | > 100 µM (inactive) | > 100 µM (inactive) | > 100 µM (inactive) | > 100 µM (inactive) | > 100 | > 100 µM (inactive) | > 100 µM (inactive) | > 100 µM (inactive) | > 100 µM (inactive) |  | > 100 µM (inactive) | 25.4 µM (inactive) | 45.4 µM (inactive) | > 100 µM (inactive) | > 100 µM (inactive) | > 100 µM (inactive)
COC(=O)c1ccc(/C=C(\c2ccc([N+](=O)[O-])o2)S(=O)(=O)c2ccc(NC(C)=O)cc2)o1 | 19 µM (inactive) | 4.97 µM (inactive) | 2.46 µM (inactive) | 2.22 µM (inactive) | 4.2 µM (inactive) |  | 2.45 | 16.7 µM (inactive) | 2.49 µM (inactive) | 4.69 µM (inactive) | 18.4 µM (inactive) |  | 2.59 µM (inactive) | 15.4 µM (inactive) | 3.63 µM (inactive) | 2.9 µM (inactive) | 3.04 µM (inactive) | 2 µM (inactive)
O=C(c1ccco1)N(C(=S)OCCOc1ccccc1)c1ccccc1 | 21.8 µM (inactive) | 20.9 µM (inactive) | 17.3 µM (inactive) | 20 µM (inactive) | 22.9 µM (inactive) | 18.9 µM (inactive) | 22.3 | 30.8 µM (inactive) | 19.9 µM (inactive) | 18.2 µM (inactive) | 20.5 µM (inactive) | 21 µM (inactive) | 19.2 µM (inactive) | 18.7 µM (inactive) | 20.5 µM (inactive) | 21 µM (inactive) |  | 16.6 µM (inactive)
O=C(OC1=CCN(Br)C1=O)C1=C(O)C(=O)N(Br)C1 | 21.5 µM (inactive) | 33 µM (inactive) | 17.8 µM (inactive) | 30 µM (inactive) |  |  | 57.3 | 42.9 µM (inactive) | 55 µM (inactive) | 18.8 µM (inactive) | 18.4 µM (inactive) | 53.8 µM (inactive) |  | 58.7 µM (inactive) | 26.5 µM (inactive) | 23.7 µM (inactive) | 54 µM (inactive) | 18.1 µM (inactive)
O=C(CCl)N1CCN(c2ccccc2)CC1 | 70.1 µM (inactive) | 20 µM (inactive) | 18.3 µM (inactive) | 17.2 µM (inactive) |  | 22.6 µM (inactive) | 20.1 | 22.6 µM (inactive) | 23.6 µM (inactive) | 18.3 µM (inactive) | 21.9 µM (inactive) | 17.6 µM (inactive) | 23.6 µM (inactive) | 15.8 µM (inactive) | 23.4 µM (inactive) | 21.5 µM (inactive) |  | 
Cc1ccc(/C=c2\cc3oc(=O)c4cccc(c4-3)c2=O)cc1 | > 100 µM (inactive) | > 100 µM (inactive) | > 100 µM (inactive) | > 100 µM (inactive) | > 100 µM (inactive) |  | > 100 |  | > 100 µM (inactive) | > 100 µM (inactive) | > 100 µM (inactive) | > 100 µM (inactive) | > 100 µM (inactive) | > 100 µM (inactive) | > 100 µM (inactive) | > 100 µM (inactive) |  | > 100 µM (inactive)
Cc1[nH]n(C(=N)N)c(=O)c1CCO | > 100 µM (inactive) | > 100 µM (inactive) | > 100 µM (inactive) | > 100 µM (inactive) | > 100 µM (inactive) | > 100 µM (inactive) | > 100 | > 100 µM (inactive) | > 100 µM (inactive) | > 100 µM (inactive) |  | > 100 µM (inactive) | > 100 µM (inactive) | > 100 µM (inactive) | > 100 µM (inactive) | > 100 µM (inactive) | > 100 µM (inactive) | > 100 µM (inactive)
COc1ccc(N(C(=O)OC(C)(C)C)[C@@H]2C(C)=C[C@H]([S@@+]([O-])c3ccc(C)cc3)[C@@H]3C(=O)N(C)C(=O)[C@@H]32)cc1 | 13.2 µM (inactive) | 17.1 µM (inactive) | 18.6 µM (inactive) | 16.5 µM (inactive) | 18.4 µM (inactive) | 18.3 µM (inactive) | 27.5 | 19.3 µM (inactive) | 18.6 µM (inactive) | 18.7 µM (inactive) | 33.6 µM (inactive) |  | 21.5 µM (inactive) | 25.3 µM (inactive) | 20.9 µM (inactive) | 17 µM (inactive) | 16.6 µM (inactive) | 18.4 µM (inactive)
CCc1nc2cc(F)ccc2[nH]c1=O | > 100 µM (inactive) | > 100 µM (inactive) | > 100 µM (inactive) | > 100 µM (inactive) | > 100 µM (inactive) | > 100 µM (inactive) | > 100 | > 100 µM (inactive) | > 100 µM (inactive) | > 100 µM (inactive) |  | > 100 µM (inactive) | > 100 µM (inactive) | > 100 µM (inactive) | > 100 µM (inactive) | > 100 µM (inactive) | > 100 µM (inactive) | 38.7 µM (inactive)
COC(=O)C(NC(=O)CNC(=O)CSc1nnc(COc2ccc(Cl)cc2)n1-c1ccccc1)C(C)C (stereo not given) |  | 16.9 µM (inactive) | 16.2 µM (inactive) | 22.1 µM (inactive) | 17.1 µM (inactive) | 21.6 µM (inactive) | 21.2 | 31.3 µM (inactive) | 18.4 µM (inactive) | 16.7 µM (inactive) |  | 18.5 µM (inactive) | 17.7 µM (inactive) | 14.7 µM (inactive) | 20.2 µM (inactive) | 19.5 µM (inactive) | 19.1 µM (inactive) | 16.6 µM (inactive)
Cc1n[nH]c(=O)n1/N=C\c1ccccc1 |  | > 100 µM (inactive) | > 100 µM (inactive) | > 100 µM (inactive) | > 100 µM (inactive) | > 100 µM (inactive) | > 100 | > 100 µM (inactive) | > 100 µM (inactive) | > 100 µM (inactive) |  | > 100 µM (inactive) | > 100 µM (inactive) | > 100 µM (inactive) | > 100 µM (inactive) | > 100 µM (inactive) | > 100 µM (inactive) | > 100 µM (inactive)
CC(=O)/N=C1\NC(=O)/C(=C/c2ccc(Cl)cc2Cl)N1C | > 100 µM (inactive) | > 100 µM (inactive) | 30.8 µM (inactive) | 55.1 µM (inactive) | 77.4 µM (inactive) | > 100 µM (inactive) | 27.9 | > 100 µM (inactive) |  |  |  | > 100 µM (inactive) | 52 µM (inactive) | > 100 µM (inactive) | 80.9 µM (inactive) | > 100 µM (inactive) | 6.81 µM (inactive) | 9.04 µM (inactive)
CN(C)c1c([O-])c(=[N+](C)C)c1=O | > 100 µM (inactive) | > 100 µM (inactive) | > 100 µM (inactive) |  | > 100 µM (inactive) |  | > 100 | > 100 µM (inactive) |  | > 100 µM (inactive) |  | > 100 µM (inactive) | > 100 µM (inactive) | > 100 µM (inactive) | > 100 µM (inactive) |  | > 100 µM (inactive) | > 100 µM (inactive)
Cc1ccc([N+](=O)[O-])cc1S(=O)(=O)Nc1ccc(C2=NN(c3ccc([N+](=O)[O-])cc3[N+](=O)[O-])C(c3cccs3)C2)cc1 (stereo not given) | 26.1 µM (inactive) | 30 µM (inactive) | 14.9 µM (inactive) | 18.5 µM (inactive) | 27 µM (inactive) | 16.2 µM (inactive) | 15.4 | 19.5 µM (inactive) | 25.9 µM (inactive) | 56.5 µM (inactive) | 16.9 µM (inactive) |  | 25.9 µM (inactive) | 25.5 µM (inactive) | 35.7 µM (inactive) | 23.2 µM (inactive) | 22.2 µM (inactive) | 
O=C(O)CCNc1ncc2c(n1)-c1ccccc1OC2 | > 100 µM (inactive) | > 100 µM (inactive) | > 100 µM (inactive) | > 100 µM (inactive) | > 100 µM (inactive) | > 100 µM (inactive) | > 100 | > 100 µM (inactive) | > 100 µM (inactive) | > 100 µM (inactive) |  |  | > 100 µM (inactive) | > 100 µM (inactive) | > 100 µM (inactive) | > 100 µM (inactive) | > 100 µM (inactive) | > 100 µM (inactive)
O=C1CSC(c2c[nH]c3ccccc23)N1c1cccc([N+](=O)[O-])c1 (stereo not given) | > 100 µM (inactive) | 81.8 µM (inactive) | 73.1 µM (inactive) | > 100 µM (inactive) | 82 µM (inactive) | 34.8 µM (inactive) | 42.9 | > 100 µM (inactive) |  | > 100 µM (inactive) | > 100 µM (inactive) | > 100 µM (inactive) | > 100 µM (inactive) |  | > 100 µM (inactive) | > 100 µM (inactive) |  | 80.5 µM (inactive)
